Experimental data: patent US8501809B2, “Inhibitors of α4 mediated cell adhesion” (Mitsubishi Tanabe Pharma Corporation, priority 2000, dated 2013)

Row | Compound | melting point
1 | CCCOCc1cc(OC)c(-c2ccc(C[C@H](NC(=O)c3c(Cl)cccc3Cl)C(=O)O)cc2)c(OC)c1 [Example 7, N-(2,6-Dichlorobenzoyl)-4-(2,6-dimethoxy-4-n-propoxymethylphenyl)-L-phenylalanine] | 183 to 186 °C
2 | CCOCc1cc(OC)c(-c2ccc(C[C@H](NC(=O)c3c(Cl)cccc3Cl)C(=O)OCC)cc2)c(OC)c1 [Example 1, N-(2,6-Dichlorobenzoyl)-4-(2,6-dimethoxy-4-ethoxymethylphenyl)-L-phenylalanine ethyl ester] | 91 to 94 °C
3 | CCOCc1cc(OC)c(-c2ccc(C[C@H](NC(=O)c3c(Cl)cccc3Cl)C(=O)O)cc2)c(OC)c1 [Example 3, N-(2,6-Dichlorobenzoyl)-4-(2,6-dimethoxy-4-ethoxymethylphenyl)-L-phenylalanine] | 196 to 198 °C
4 | COCc1cc(OC)c(-c2ccc(C[C@H](NC(=O)c3c(Cl)cccc3Cl)C(=O)O)cc2)c(OC)c1 [Example 5, N-(2,6-Dichlorobenzoyl)-4-(2,6-dimethoxy-4-methoxymethylphenyl)-L-phenylalanine] | 232 to 235 °C

Next, values leading:

Row | melting point | Compound
5 | 87 to 89 °C | CCOCc1cc(OC)c(-c2ccc(C[C@H](NC(=O)c3c(F)cccc3F)C(=O)OCC)cc2)c(OC)c1 [Example 10, N-(2,6-Difluorobenzoyl)-4-(2,6-dimethoxy-4-ethoxymethylphenyl)-L-phenylalanine ethyl ester]
6 | 182 to 184 °C | CCOCc1cc(OC)c(-c2ccc(C[C@H](NC(=O)c3c(F)cccc3Cl)C(=O)O)cc2)c(OC)c1 [Example 20, N-(2-Chloro-6-fluorobenzoyl)-4-(2,6-dimethoxy-4-ethoxymethylphenyl)-L-phenylalanine]
7 | 170 to 175 °C | COCc1cc(OC)c(-c2ccc(C[C@H](NC(=O)c3c(F)cccc3Cl)C(=O)O)cc2)c(OC)c1 [Example 23, N-(2-Chloro-6-fluorobenzoyl)-4-(2,6-dimethoxy-4-methoxymethylphenyl)-L-phenylalanine]
8 | 63 to 70 °C | CCOCCc1cc(OC)c(-c2ccc(C[C@H](NC(=O)c3c(F)cccc3F)C(=O)O)cc2)c(OC)c1 [Example 31, N-(2,6-Difluorobenzoyl)-4-[2,6-dimethoxy-4-(2-ethoxyethyl)phenyl]-L-phenylalanine]
